From ChEMBL document CHEMBL5030547, “Synthesis and biological studies of new piperidino-1,2,3-triazole hybrids with 3-aryl isoxazole side chains” (Bioorg Med Chem Lett, 2021)

Columns and labels:
PC-3 = assay: Cytotoxicity against human PC-3 cells assessed as reduction in cell viability after 48 hrs; type: functional, cell-based; conditions: PC-3, 48 h
Huh-7 = assay: Cytotoxicity against human Huh-7 cells assessed as reduction in cell viability after 48 hrs; type: functional, cell-based; conditions: Huh-7, 48 h
MDA-MB-468 = assay: Cytotoxicity against human MDA-MB-468 cells assessed as reduction in cell viability after 48 hrs; type: functional, cell-based; conditions: MDA-MB-468, 48 h
MCF7 [1] = assay: Cytotoxicity against human MCF7 cells assessed as reduction in cell viability after 48 hrs; type: functional, cell-based; conditions: MCF7, 48 h
Caco-2 = assay: Cytotoxicity against human Caco-2 cells assessed as reduction in cell viability after 48 hrs; type: functional, cell-based; conditions: Caco-2, 48 h
Fibroblast = assay: Cytotoxicity against human skin fibroblast cells assessed as reduction in cell viability after 48 hrs; type: cell-based
MDA-MB-231 = assay: Cytotoxicity against human MDA-MB-231 cells assessed as reduction in cell viability after 48 hrs; type: functional, cell-based; conditions: MDA-MB-231, 48 h
HCT-116 = assay: Cytotoxicity against human HCT-116 cells assessed as reduction in cell viability after 48 hrs; type: functional, cell-based; conditions: HCT-116, 48 h
[2] = Inhibition of Bcl-XL- PUMA protein-protein interaction in human MCF7 cells incubated for overnight by BRET assay; type: cell-based
MCF7 [3] = assay: Inhibition of Bcl-XL- PUMA protein-protein interaction in human MCF7 cells at 20 uM incubated for overnight by BRET assay relative to control; type: cell-based

SMILES | IC50 (PC-3) [µM] | IC50 (Huh-7; read-out: IC50) [µM] | IC50 (MDA-MB-468) [µM] | IC50 (MCF7 [1]) [µM] | IC50 (Caco-2) [µM] | IC50 (Fibroblast) [µM] | IC50 (MDA-MB-231) [µM] | IC50 (HCT-116) [µM] | IC50 [2] [µM] | inhibition (MCF7 [3]) [%] | IC50 (Huh-7) [µM]
O=[N+]([O-])c1ccc(CN2CCC(n3cc(CC(OCc4cc(-c5ccccc5)no4)c4ccc(Br)cc4)nn3)CC2)cc1 (centres undefined) | > 25 | 7 | 3 | > 25 | 7 | > 25 | > 25 | > 25 |  |  | 
N#Cc1ccc(-c2cc(COC(Cc3cn(C4CCN(Cc5ccc([N+](=O)[O-])cc5)CC4)nn3)c3ccc(Br)cc3)on2)cc1 (centres undefined) | 2 | 5 | 5 | 3 | 2 | > 25 | > 25 | > 25 |  |  | 
O=[N+]([O-])c1ccc(CN2CCC(n3cc(CC(OCc4cc(-c5cccc(Br)c5)no4)c4ccc(Br)cc4)nn3)CC2)cc1 (centres undefined) | > 25 | 3 | > 25 | 6 | 5 | > 25 | > 25 | > 25 |  |  | 
COc1ccccc1-c1cc(COC(Cc2cn(C3CCN(Cc4ccc([N+](=O)[O-])cc4)CC3)nn2)c2ccc(Br)cc2)on1 (centres undefined) | > 25 | 5 | > 25 | 3 | > 25 | > 25 | > 25 | > 25 |  |  | 
O=[N+]([O-])c1ccc(CN2CCC(n3cc(CC(OCc4cc(-c5ccc(F)cc5)no4)c4ccc(Br)cc4)nn3)CC2)cc1 (centres undefined) | > 25 | 2 | 4 | 7 | 3 | > 25 | > 25 | > 25 |  |  | 
COc1ccc(-c2cc(COC(Cc3cn(C4CCN(Cc5ccc([N+](=O)[O-])cc5)CC4)nn3)c3ccc(Br)cc3)on2)cc1 (centres undefined) | 3 | 2 | 9 | 4 | 3 | > 25 | > 25 | > 25 |  |  | 
O=[N+]([O-])c1ccc(CN2CCC(n3cc(CC(OCc4cc(-c5ccccc5F)no4)c4ccc(Br)cc4)nn3)CC2)cc1 (centres undefined) | 6 | 2 | 4 | 8 | 4 | > 25 | 4 | 9 | 3.8 | 10 | 
N#Cc1cccc(-c2cc(COC(Cc3cn(C4CCN(Cc5ccc([N+](=O)[O-])cc5)CC4)nn3)c3ccc(Br)cc3)on2)c1 (centres undefined) | > 25 | 3 | > 25 | 2 | 3 | > 25 | > 25 | > 25 |  |  | 
O=[N+]([O-])c1ccc(CN2CCC(n3cc(CC(OCc4cc(-c5cccc(F)c5)no4)c4ccc(Br)cc4)nn3)CC2)cc1 (centres undefined) | 9 | 3 | 3 | 8 | 5 | 10 | 5 | 6 |  |  | 
COc1cccc(-c2cc(COC(Cc3cn(C4CCN(Cc5ccc([N+](=O)[O-])cc5)CC4)nn3)c3ccc(Br)cc3)on2)c1 (centres undefined) | > 25 | 5 | > 25 | 7 | 5 | > 25 | > 25 | > 25 |  |  | 
O=[N+]([O-])c1ccc(CN2CCC(n3cc(CC(OCc4cc(-c5ccc(Br)cc5)no4)c4ccc(Br)cc4)nn3)CC2)cc1 (centres undefined) | > 25 | 2 | 5 | 4 | 3 | > 25 | > 25 | > 25 |  |  | 
O=[N+]([O-])c1ccc(CN2CCC(n3cc(CC(OCc4cc(-c5ccccc5Br)no4)c4ccc(Br)cc4)nn3)CC2)cc1 (centres undefined) | > 25 | > 25 | > 25 | 6 | 3 | > 25 | > 25 | > 25 |  |  | 
COc1cccc2c1C(=O)c1c(O)c3c(c(O)c1C2=O)C[C@@](O)(C(=O)CO)C[C@@H]3O[C@H]1C[C@H](N)[C@H](O)[C@H](C)O1 [DOXORUBICIN] |  | 0.02 | 0.06 | 0.1 |  | 0.02 | 0.04 | 0.08 |  |  | 
CC[C@H](CO)Nc1nc(NCc2ccccc2)c2ncn(C(C)C)c2n1 [SELICICLIB] | 11 |  | 18 |  |  | 15 | 17 |  |  |  | 9
